This is an account of results in patent US20230029554A1, “ORGANOID CULTURES” (THE WALTER AND ELIZA HALL INSTITUTE OF MEDECAL RESEARCH, priority 2019, published 2023).

For data set [1] the following is noted: physiological concentrations observed in patients; cited from earlier work.
For data set [2], the system named is colorectal cancer organoids. The experiment in a line: Inhibition of colorectal cancer organoid growth by bortezomib (cell killing control). In kind it is cell-based, human. As to conditions: at 1 μM; three cancer organoids; image analysis and CellTitreGlo 3D (FIG. 17). As to the method: The bortezomib concentration of 1 um was selected as positive (killing) control, indicated by the dashed red line.
Organoids were digested with TrypLE Express enzyme at 37° C. for 15-20 min. Digestion was terminated in 1% BSA in DMEM/F12 and fragments were collected by centrifugation. Pellets were resuspended in culture medium, dissociated with a 26 G needle and filtered through a 40 μm cell strainer (Bio-Strategy, BDAA352340) to produce a single cell suspension. Live cells were counted using a hemocytometer and trypan blue staining. Single cells (3000 cells in 60 μl/well) were suspended in culture medium with 3% Matrigel, penicillin-streptomycin, normocin and 10 μM Y27632 and seeded in 384-well optical plates (Thermo Fisher Scientific, NUN242764) using a MANTIS® liquid handling robot (Formulatrix), and established for 3 days prior to drug addition. […]
Plate uniformity in the 384-well format was evaluated for maximum (Max) signals, minimum (Min) signals, and drug dose-dependent midpoint (Mid) signals (FIG. 15c-f). […] Organoid viability was determined by both image analysis and CellTiter-Glo 3D luminescence measurements. Mean organoid size and luminescence signals were visualized as heatmaps for each plate and plotted by wells for each plate row from left to right or as drug dose-response curves.

Data set [3] relates to cancer organoid WCB088T. Description: Regorafenib dose-response in 384-well LVM suspension culture, image analysis (mean organoid size). As to conditions: Homo sapiens, 168 h, imaging, 7 days drug, 3% Matrigel, read-out: Mean ED50. In kind it is cell-based. As to the method: (§1) Organoids were digested with TrypLE Express enzyme at 37° C. for 15-20 min. Digestion was terminated in 1% BSA in DMEM/F12 and fragments were collected by centrifugation. Pellets were resuspended in culture medium, dissociated with a 26 G needle and filtered through a 40 μm cell strainer (Bio-Strategy, BDAA352340) to produce a single cell suspension. Live cells were counted using a hemocytometer and trypan blue staining. Single cells (3000 cells in 60 μl/well) were suspended in culture medium with 3% Matrigel, penicillin-streptomycin, normocin and 10 μM Y27632 and seeded in 384-well optical plates (Thermo Fisher Scientific, NUN242764) using a MANTIS® liquid handling robot (Formulatrix), and established for 3 days prior to drug addition. For plate uniformity studies, 1 μM bortezomib (Selleck, S1013) was used as the positive control, and 0.5% DMSO (Sigma, D2650) was used as a negative vehicle control. For the drug-dose response curves, regorafenib (Selleck, S1178) was used in a 9 point 4-fold titration series starting at 50 μM. All compound plates were prepared using a JANUS liquid handling robot (PerkinElmer) and stamped into 384-well plates using an integrated PinTool addition accessory (PerkinElmer).
(§2) PDTOs were imaged every 24 h for 7 days by bright-field microscopy as z-stacks on an automated Eclipse Ti2 Inverted Microscope System with an integrated tissue culture incubator (Nikon). 384-well images were captured using a 4× dry objective and Nikon Eclipse Ti2 software with a 25 μm Z-stack over a range of 500 μm. On day 7, 20μl CellTiter-Glo 3D reagent (Promega, G9683) was added using the MANTIS® liquid handling robot, plates were shaken at 1000 rpm for 30 mins at room temperature and luminescence measured using an EnVision plate reader (PerkinElmer).
(§3) For image analysis, flattening of Z-stack bright-field images, removal of background debris and selection of organoids were performed using ImageJ software (NIH Image). The projection of z-stack images onto a single in-focus image was carried out using the Extended Depth of Field (EDF) plugin in “easy mode”, with the parameter quality=′1′ and topology=1′. Processed images were exported as high-quality tiff files. Background debris removal was performed by with a series of steps including Subtract Background, Enhance Local Contrast (CLAHE), set AutoThreshold, set Black Background, and Convert to Mask. Organoid selection and feature extraction were achieved using sequential Analyze Particles, Invert LUT, Fill Holes, Watershed, Set Measurements and Analyze Particles steps. Features of selected organoids were exported as text files for determination of mean organoid size.
(§4) For comparison of uniformity of regorafenib dose response curves between imaging and CellTitreGlo 3D data, response curves were fitted using a 4-parameter log-logistic function to percent viability data.
(§5) Plate uniformity in the 384-well format was evaluated for maximum (Max) signals, minimum (Min) signals, and drug dose-dependent midpoint (Mid) signals (FIG. 15c-f). To determine Max signals, organoids were established for 3 days, treated with 0.5% DMSO (vehicle control) using a JANUS Automated Liquid Handling Workstation with a 384 pin tool, and incubated for 7 days. […] To evaluate dose-dependent Mid signals, regorafenib was titrated across each half of the assay plate in a 9-step, 4-fold dilution series starting from 50 μM, generating a total of 24 drug dose-response curves. Organoid viability was determined by both image analysis and CellTiter-Glo 3D luminescence measurements. Mean organoid size and luminescence signals were visualized as heatmaps for each plate and plotted by wells for each plate row from left to right or as drug dose-response curves.

The test system of data set [4] is cancer organoid WCB024T. The description is as above. In kind it is cell-based. To be noted: Homo sapiens, 168 h, imaging, 7 days drug, 3% Matrigel, read-out: Mean ED50. On the procedure: as §1, §2, §3, §4, §5
Data set [5] deals with cancer organoid WCB123LU. The description is as above. To be noted: Homo sapiens, 168 h, imaging, 7 days drug, 3% Matrigel, read-out: Mean ED50. In kind it is cell-based. On the procedure: as §1, §2, §3, §4, §5
Data set [6] has as its system mitochondrial function. As to conditions: Weng, Z. et al. (2015) Toxicology 327, 10-21; cited from earlier work.
Data set [7] deals with cancer organoid WCB088T. Description: Regorafenib dose-response in 384-well LVM suspension culture, CellTitre-Glo 3D viability assay. As to conditions: Homo sapiens, 168 h, 7 days drug, 3% Matrigel, read-out: Mean ED50. It counts as cell-based. On the procedure:
as §1, §2, §4, §5

Data set [8] deals with cancer organoid WCB024T. The description is as above. It counts as cell-based. As to conditions: Homo sapiens, 168 h, 7 days drug, 3% Matrigel, read-out: Mean ED50. As to the method: as §1, §2, §4, §5
Data set [9] relates to cancer organoid WCB123LU. The data set is described as above. In kind it is cell-based. As to conditions: Homo sapiens, 168 h, 7 days drug, 3% Matrigel, read-out: Mean ED50. As to the method:
as §1, §2, §4, §5

One may read the Cmax as the peak of the concentration-time curve. As for `O=c1[nH]cc(F)c(=O)[nH]1` [5-FU, 5-fluorouracil], the peak concentration (Cmax) in data set [1] is about 7.5 µM.
For the molecule `CCc1c2c(nc3ccc(O)cc13)-c1cc3c(c(=O)n1C2)COC(=O)[C@]3(O)CC` [SN-38], the Cmax in data set [1] was about 0.14 µM.
Regarding `CC(C)C[C@H](NC(=O)[C@H](Cc1ccccc1)NC(=O)c1cnccn1)B(O)O` [bortezomib], the “growth inhibition (cell killing control)” value in data set [2] is given as “complete growth inhibition”.
Consider `O=C1[O][Pt]2([NH][C@@H]3CCCC[C@H]3[NH]2)[O]C1=O` [oxaliplatin], for which the Cmax in [1] was about 5 µM.
With `CNC(=O)c1cc(Oc2ccc(NC(=O)Nc3ccc(Cl)c(C(F)(F)F)c3)c(F)c2)ccn1` [regorafenib], the EC50 was 6.09 µM in data set [3] (Mid (Left) plate half); 10.2 µM in [3] (Mid (Right) plate half); 1540 nM in data set [4] (Mid (Left) plate half); 2280 nM in data set [4] (Mid (Right) plate half); 1230 nM in [5] (Mid (Left) plate half); 1560 nM in [5] (Mid (Right) plate half). For the same molecule, the EC50 in [7] (Mid (Left) plate half) amounted to 1980 nM; in data set [7] (Mid (Right) plate half), 3410 nM; in [8] (Mid (Left) plate half), 3.69 µM; in data set [8] (Mid (Right) plate half), 5.15 µM; in [9] (Mid (Left) plate half) it was 1010 nM; in data set [9] (Mid (Right) plate half), 1100 nM. Moreover, the “effect on mitochondrial function and cellular ATP levels” value in data set [6] is “impair mitochondrial function and decrease cellular ATP levels”. Further, the Cmax in [1] was about 7.3 µM.
As to TAS-102, the Cmax in data set [1] is about 18.2 µM.
